According to patent US12404255B2, “Compound and pharmaceutical composition containing same for treating or preventing neural damage, neural disease, or developmental disorder through promoting proliferation, differentiation, and/or regeneration of neural cells” (ETNOVA THERAPEUTICS CORP., priority 2020, dated 2025):

Key:
[1] = system: human neuroblastoma SH-SY5Y; assay: Cell viability test using CCK-8; format: cell-based; conditions: CCK-8, 0-50 μM, 24, 48, 72 hours
Description: Cell viability analysis of a nerve cell line using CCK-8 was performed on human neuroblastoma SH-SY5Y as an undifferentiated nerve cell line. For reference, the analysis using the CCK-8 (Cell counting kit-8) was based on a highly water-soluble tetrazolium salt-SST-8. The analysis is based on the fact that when [2-(2-methoxy-4-nitrophenyl)-3-(4-nitrophenyl)(2,4-disulfophenyl)-2H-tetrazolium, monosodium salt] is reduced under presence of an electron mediator, a water-soluble formazan orange dye is produced, and an amount of the formazan dye produced by dehydrogenase in cells is directly proportional to the number of living cells. The specific experimental method is as follows.
The next day, the growth medium was removed therefrom. […] At 2 hours before a harvest time, 10 μL of CCK-8 solution was added to each well and the cells were incubated for an additional 2 hours. […] Cell viability (%)=B/A×100(%) [Cell viability calculation equation]
(In the equation, A denotes an absorbance value measured in a control well, and B denotes an absorbance value measured in the well containing the drug).

SH-SY5Y [2] = assay: Neurite elongation and new neuron generation and growth using immunofluorescence staining (color histogram); format: cell-based, human; conditions: 10 μM, day 3
Description: For cell viability analysis, stabilized cells were planted in a 60 mm dish at a density of ×10^5 cells/dish. […] The next day, the growth medium was removed therefrom. […] Then, the cells were incubated therein for 1, 3, and 5 days, and under at 37° C. and 5% C02 condition. The cells were harvested and were washed with DPBS, and fixed with 10% Neutral Buffered Formalin for 10 minutes, washed 3 times with Tris-buffered saline (TBS), and then a reaction thereof was carried out for 15 minutes in 0.3% Triton X-100 (in TBS). The cells were washed three times in TBS, and a solution of 5% Bovine serum albumin (BSA) and Normal Goat Serum (NGS) in TBS was added thereto and a reaction thereof was carried out at 4° C. for 24 hours. Differentiation into the nerve cells and formation of the neurite were identified using j-III tubulin primary antibody as a neuron specific marker and doublecortin primary antibody as a newborn immature neuron marker. […] The cells were washed three times with TBS, and were mounted (VECTASHIELD® Mounting Medium with DAPI; Vector Laboratories, Burlingame, CA, USA), and images were acquired with a fluorescence microscope. […]
The color histogram was measured using the ImageJ program.

SH-SY5Y [3] = assay: Cell proliferation effect using immunofluorescence staining (Ki-67 positive cells); format: cell-based, human; conditions: 1st day of exposure
Description: The number of cells which were positive relative to Ki-67 as a marker for neuronal proliferation was analyzed. The number of the positive cells was automatically obtained using the ImageJ program. Ki-67 positive cells (%)=(ki-67 positive cell number/DAPI positive cell number)×100 [Calculation equation of Ki-67 positive cell number]
The calculated values were graphed using the GraphPad Prism application. […] The statistical significance of the obtained values was identified via one-way ANOVA with Dunnett's multiple comparison test. *p<0.5, **p<0.1, ***p<0.01 vs. control, #p<0.5, ##p<0.1 vs. DO3A, †p<0.5, †††p<0.01 vs. ATRA indicate presence of statistical significance.

[4] = Solubility test in deionized water; format: physicochemical
Description: In order to check the solubility of the compound according to the present disclosure, each of MMB-11903B according to the present disclosure prepared in the Preparation Example and ATRA was added to 1 mL of deionized water at a concentration of 100 mM (Compound MMB-11903B according to the present disclosure: 72.8 mg/mL; ATRA: 30.0 mg/mL) and each mixed solution was stirred for dissolution by lightly vortexing the same. After each of the prepared solution of the compound MMB-11903B according to the present disclosure and the prepared ATRA solution was left at room temperature for 20 minutes, an image thereof was taken again to observe a dissolution state of each compound in each solution (FIG. 1).
Thus, the compound MMB-11903B according to the present disclosure may be easily dissolved in the solvent such as water, so that it has high solubility, and further has solubility stability, so that it may maintain a dissolved state even after being left for a long time.

SH-SY5Y [5] = conditions: human, 24 h, 200 μM
From the text: (§1) The calculated values were graphed using the GraphPad Prism application.

SH-SY5Y [6] = assay: Changes in morphology of nerve cells (inverted microscope); format: cell-based, human; parameters: neurite elongation / change in cell morphology: dose or concentration left out as unconfirmed; conditions: microscope image
Description: For cell viability analysis, stabilized cells were planted in a 60 mm dish at a density of ×10^5 cells/dish. […] The next day, the growth medium was removed therefrom. […] Then, the cells were incubated therein for 1, 3, and 5 days, and under at 37° C. and 5% CO2 condition. Cell morphology was imaged with a Nikon inverted microscope (Nikon, ECLIPSE Ts2, Nikon Corporation, Tokyo, Japan).

SH-SY5Y [7] = assay: Neurite elongation promoting effect using immunofluorescence staining; format: cell-based, human; conditions: 10 μM
From the text: as §1

Structure (SMILES)	cell viability, dependence on concentration and time [1]	expression level of new neurons (color histogram) (SH-SY5Y [2])	cell proliferation (Ki-67 positive cells) versus control (SH-SY5Y [3])	dissolution state immediately after dissolution ([4]; 100 mM in 1 mL deionized water, light vortexing, initial state)	dissolution state after being left ([4]; 100 mM in deionized water, left at room temperature for 20 minutes)	cytotoxicity (SH-SY5Y [5])	neurite elongation / change in cell morphology (SH-SY5Y [6]; 1, 3, and 5 days)	apoptosis due to cytotoxicity (SH-SY5Y [6]; 5-20 μM, 1-5 days)	neurite length versus control (SH-SY5Y [7]; ImageJ measurement after fluorescent staining)	neurite elongation in fluorescence image (SH-SY5Y [7]; 1, 3, and 5 days, tubulin and doublecortin staining)
CC1=C(/C=C/C(C)=C/C=C/C(C)=C/C(=O)O)C(C)(C)CCC1 [ATRA, all-trans retinoic acid]	the higher the concentration of ATRA and the longer the time, the lower the cell viability	low expression level of new neurons	did not exhibit a significant difference from that of the control	uniformly dissolved in the solution initially	separated from the solvent and was precipitated over time	approximately 55%	–	–	–	–
O=C(O)CN1CCNCCN(CC(=O)O)CCN(CC(=O)O)CC1 [DO3A]	–	–	approximately two times larger than the control	–	–	–	neurite elongation was not observed	observed at 10 μM, 5 days and at 20 μM, and 3 days	did not achieve the neurite elongation as in the control	neurite elongation was not observed
